Earlier results in patent US20110160143A1, “Topical Acyl Glutathione Psoriasis Compositions” (priority 2009, published 2011).

System: HIV patients
Conditions: oral administration

SMILES: O=C(O)CCCCC1CCSS1 (stereo not drawn) [alpha-lipoic acid, Alpha-lipoic acid]
- glutathione levels: raises glutathione levels
- safety and tolerability: extremely safe and well tolerated
